Results as given in the supplement of paper PMC8671470.
Structures can show the parent of a compound that is named as a salt.

The compounds below were run on myeloid leukemia patient primary cells Pat.14 (assay: area under dose-response curve (viability, 1 nM-10 uM) (fraction (0-1)); higher = more sensitive). Conditions: 72 h.
Experimental: (§1)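 AUC (0–1, higher = more sensitive) of the 5-point dose–response (1 nM–10 µM, 72 h, CellTiter-Glo) in primary AML/CML patient mononuclear cells. 0.030103 is the floor for inactive compounds.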
With Fc1ccc(CNc2ncnc3ccc(F)cc23)cc1 [Spautin 1] the “area under dose-response curve” value was 0.141.
In the case of O=C(Oc1cccc(F)c1OC(=O)c1cccc(O)c1)c1cccc(O)c1 [WZB117], the “area under dose-response curve” value is reported as 0.107.
With CC(C)(Cc1ccccc1)NCC(O)c1ccc(O)c(NS(C)(=O)=O)c1 (stereo not given) [Zinterol hydrochloride] the “area under dose-response curve” value was < 0.0301.

What follows are compounds tested on myeloid leukemia patient primary cells Pat.1 in the same assay as above. Conditions: 72 h.
Experimental: as §1
O=C(c1c2ccccc2cc2ccccc12)N1CCC(N2CCC[C@@H](C(=O)N3CCOCC3)C2)CC1 was tested, and the “area under dose-response curve” value was < 0.0301.
c1ccc2c(c1)SCc1c-2[nH]c2ccccc12 was tested, and the “area under dose-response curve” value was 0.132.
Oc1ncc(F)c(O)n1 [5-fluorouracil] was tested, and the “area under dose-response curve” value was < 0.0301.
CN(C)CCNC(=O)c1cccn2c(=O)c3cc4ccccc4cc3nc12 [Bmh-21] was tested, and the “area under dose-response curve” value was 0.368.
With O=C(Cc1cccc(OC(F)(F)F)c1)Nc1ccc(CCCCc2nnc(NC(=O)Cc3ccccn3)s2)nn1 [CB-839] the “area under dose-response curve” value was < 0.0301.
In the case of O=C(/C=C/c1cccnc1)NCCCCC1CCN(C(=O)c2ccccc2)CC1 [Daporinad], the “area under dose-response curve” value is reported as 0.616.
With Nc1ccn([C@@H]2O[C@H](CO)[C@@H](O)C2(F)F)c(=O)n1 [Gemcitabine] the “area under dose-response curve” value was 0.0673.
With Clc1cc(Cl)c(OCC#CI)cc1Cl [Haloprogin] the “area under dose-response curve” value was 0.258.
O=c1[nH]c(=O)n([C@H]2C[C@H](O)[C@@H](CO)O2)cc1I [Idoxuridine] was tested, and the “area under dose-response curve” value was < 0.0301.
In the case of NS(=O)(=O)c1ccc(S(=O)(=O)Nc2cccc3c(Cl)c[nH]c23)cc1 [Indisulam], the “area under dose-response curve” value is reported as 0.128.
In the case of Cc1nnc(-c2ccc(N3CCC(Oc4ccccc4C(F)(F)F)CC3)nn2)s1 [MF-438], the “area under dose-response curve” value is reported as < 0.0301.
CCCCCCCCCCCCC/C=C/[C@@H](O)[C@H](CO)N(C)C [N,N-Dimethylsphingosine] was tested, and the “area under dose-response curve” value was 0.0643.
With Nc1nc(O)c2c(CCc3ccc(C(=O)N[C@@H](CCC(=O)O)C(=O)O)cc3)c[nH]c2n1 [Pemetrexed] the “area under dose-response curve” value was < 0.0301.
C=C1NC(=O)c2cc(CN(C)c3ccc(C(=O)N[C@@H](CCC(=O)O)C(=O)O)s3)ccc2N1 [Raltitrexed] was tested, and the “area under dose-response curve” value was < 0.0301.
With Fc1ccc(CNc2ncnc3ccc(F)cc23)cc1 [Spautin 1] the “area under dose-response curve” value was 0.0783.
O=C(Oc1cccc(F)c1OC(=O)c1cccc(O)c1)c1cccc(O)c1 [WZB117] was tested, and the “area under dose-response curve” value was 0.0346.
CC(C)(Cc1ccccc1)NCC(O)c1ccc(O)c(NS(C)(=O)=O)c1 (stereo not given) [Zinterol hydrochloride] was tested, and the “area under dose-response curve” value was < 0.0301.

These compounds were tested on myeloid leukemia patient primary cells Pat.15 in the same assay as above. Conditions: 72 h.
Experimental: as §1
In the case of O=C(c1c2ccccc2cc2ccccc12)N1CCC(N2CCC[C@@H](C(=O)N3CCOCC3)C2)CC1, the “area under dose-response curve” value is reported as < 0.0301.
For c1ccc2c(c1)SCc1c-2[nH]c2ccccc12, the “area under dose-response curve” value was 0.22.
With Oc1ncc(F)c(O)n1 [5-fluorouracil] the “area under dose-response curve” value was < 0.0301.
With CN(C)CCNC(=O)c1cccn2c(=O)c3cc4ccccc4cc3nc12 [Bmh-21] the “area under dose-response curve” value was 0.386.
In the case of O=C(Cc1cccc(OC(F)(F)F)c1)Nc1ccc(CCCCc2nnc(NC(=O)Cc3ccccn3)s2)nn1 [CB-839], the “area under dose-response curve” value is reported as 0.283.
O=C(/C=C/c1cccnc1)NCCCCC1CCN(C(=O)c2ccccc2)CC1 [Daporinad] was tested, and the “area under dose-response curve” value was 0.792.
Nc1ccn([C@@H]2O[C@H](CO)[C@@H](O)C2(F)F)c(=O)n1 [Gemcitabine] was tested, and the “area under dose-response curve” value was 0.0872.
With Clc1cc(Cl)c(OCC#CI)cc1Cl [Haloprogin] the “area under dose-response curve” value was 0.183.
For O=c1[nH]c(=O)n([C@H]2C[C@H](O)[C@@H](CO)O2)cc1I [Idoxuridine], the “area under dose-response curve” value was < 0.0301.
With NS(=O)(=O)c1ccc(S(=O)(=O)Nc2cccc3c(Cl)c[nH]c23)cc1 [Indisulam] the “area under dose-response curve” value was 0.0789.
In the case of CCCCCCCCCCCCC/C=C/[C@@H](O)[C@H](CO)N(C)C [N,N-Dimethylsphingosine], the “area under dose-response curve” value is reported as 0.113.
In the case of Nc1nc(O)c2c(CCc3ccc(C(=O)N[C@@H](CCC(=O)O)C(=O)O)cc3)c[nH]c2n1 [Pemetrexed], the “area under dose-response curve” value is reported as < 0.0301.
C=C1NC(=O)c2cc(CN(C)c3ccc(C(=O)N[C@@H](CCC(=O)O)C(=O)O)s3)ccc2N1 [Raltitrexed] was tested, and the “area under dose-response curve” value was < 0.0301.
For Fc1ccc(CNc2ncnc3ccc(F)cc23)cc1 [Spautin 1], the “area under dose-response curve” value was 0.12.
With CC(C)(Cc1ccccc1)NCC(O)c1ccc(O)c(NS(C)(=O)=O)c1 (stereo not given) [Zinterol hydrochloride] the “area under dose-response curve” value was < 0.0301.

Each compound was assayed on myeloid leukemia patient primary cells Pat.10 in the same assay as above. Conditions: 72 h.
Experimental: as §1
With O=C(c1c2ccccc2cc2ccccc12)N1CCC(N2CCC[C@@H](C(=O)N3CCOCC3)C2)CC1 the “area under dose-response curve” value was < 0.0301.
For c1ccc2c(c1)SCc1c-2[nH]c2ccccc12, the “area under dose-response curve” value was 0.505.
In the case of CCC(CC#N)OC(=O)N[C@@H](C)c1cccc(NC(=O)Nc2ccc(-c3cnco3)c(OC)c2)c1 (stereo in doubt) [AVN-944], the “area under dose-response curve” value is reported as 0.508.
Oc1ncc(F)c(O)n1 [5-fluorouracil] was tested, and the “area under dose-response curve” value was 0.0668.
With CN(C)CCNC(=O)c1cccn2c(=O)c3cc4ccccc4cc3nc12 [Bmh-21] the “area under dose-response curve” value was 0.263.
O=C(Cc1cccc(OC(F)(F)F)c1)Nc1ccc(CCCCc2nnc(NC(=O)Cc3ccccn3)s2)nn1 [CB-839] was tested, and the “area under dose-response curve” value was 0.665.
In the case of O=C(/C=C/c1cccnc1)NCCCCC1CCN(C(=O)c2ccccc2)CC1 [Daporinad], the “area under dose-response curve” value is reported as 0.956.
For Nc1ccn([C@@H]2O[C@H](CO)[C@@H](O)C2(F)F)c(=O)n1 [Gemcitabine], the “area under dose-response curve” value was 0.257.
With Clc1cc(Cl)c(OCC#CI)cc1Cl [Haloprogin] the “area under dose-response curve” value was 0.411.
For O=c1[nH]c(=O)n([C@H]2C[C@H](O)[C@@H](CO)O2)cc1I [Idoxuridine], the “area under dose-response curve” value was < 0.0301.
NS(=O)(=O)c1ccc(S(=O)(=O)Nc2cccc3c(Cl)c[nH]c23)cc1 [Indisulam] was tested, and the “area under dose-response curve” value was < 0.0301.
Cc1nnc(-c2ccc(N3CCC(Oc4ccccc4C(F)(F)F)CC3)nn2)s1 [MF-438] was tested, and the “area under dose-response curve” value was < 0.0301.
In the case of CCCCCCCCCCCCC/C=C/[C@@H](O)[C@H](CO)N(C)C [N,N-Dimethylsphingosine], the “area under dose-response curve” value is reported as 0.468.
In the case of Nc1nc(O)c2c(CCc3ccc(C(=O)N[C@@H](CCC(=O)O)C(=O)O)cc3)c[nH]c2n1 [Pemetrexed], the “area under dose-response curve” value is reported as < 0.0301.
C=C1NC(=O)c2cc(CN(C)c3ccc(C(=O)N[C@@H](CCC(=O)O)C(=O)O)s3)ccc2N1 [Raltitrexed] was tested, and the “area under dose-response curve” value was < 0.0301.
